The NIST ThermoML archive (doi:10.1021/je060271a)
± gives the expanded uncertainty stated by the source.

Details: 283.15 K, Liquid, Vibrating tube method

CCCCCC(=O)OCC(COC(=O)CCCCC)(COC(=O)CCCCC)COC(=O)CCCCC [pentaerythritol tetrahexanoate]
Details	mass density [kg/m3]
17954 kPa	1014.2 ± 1.2
17972 kPa	1014.2 ± 1.2
17987 kPa	1014.3 ± 1.2
18002 kPa	1014.3 ± 1.2
18020 kPa	1014.4 ± 1.2
18035 kPa	1014.3 ± 1.2
18050 kPa	1014.4 ± 1.2
18068 kPa	1014.4 ± 1.2
18083 kPa	1014.3 ± 1.2
18098 kPa	1014.3 ± 1.2
18116 kPa	1014.5 ± 1.2
18131 kPa	1014.3 ± 1.2
18146 kPa	1014.4 ± 1.2
18161 kPa	1014.3 ± 1.2
18179 kPa	1014.4 ± 1.2
18195 kPa	1014.4 ± 1.2
18210 kPa	1014.5 ± 1.2
18228 kPa	1014.4 ± 1.2
18243 kPa	1014.5 ± 1.2
18259 kPa	1014.6 ± 1.2
18277 kPa	1014.5 ± 1.2
18292 kPa	1014.4 ± 1.2
18308 kPa	1014.5 ± 1.2
18326 kPa	1014.5 ± 1.2
18341 kPa	1014.6 ± 1.2
18356 kPa	1014.6 ± 1.2
18375 kPa	1014.5 ± 1.2
18391 kPa	1014.5 ± 1.2
18407 kPa	1014.6 ± 1.2
18425 kPa	1014.6 ± 1.2
18441 kPa	1014.6 ± 1.2
18457 kPa	1014.6 ± 1.2
18472 kPa	1014.5 ± 1.2
18491 kPa	1014.6 ± 1.2
18506 kPa	1014.6 ± 1.2
18522 kPa	1014.6 ± 1.2
18541 kPa	1014.5 ± 1.2
18557 kPa	1014.7 ± 1.2
18576 kPa	1014.6 ± 1.2
18592 kPa	1014.6 ± 1.2
18608 kPa	1014.7 ± 1.2
18624 kPa	1014.6 ± 1.2
18643 kPa	1014.6 ± 1.2
18659 kPa	1014.7 ± 1.2
18676 kPa	1014.7 ± 1.2
18695 kPa	1014.7 ± 1.2
18711 kPa	1014.7 ± 1.2
18727 kPa	1014.7 ± 1.2
18746 kPa	1014.7 ± 1.2
18763 kPa	1014.8 ± 1.2
18779 kPa	1014.7 ± 1.2
18796 kPa	1014.7 ± 1.2
18815 kPa	1014.9 ± 1.2
18832 kPa	1014.7 ± 1.2
18848 kPa	1014.9 ± 1.2
18868 kPa	1014.8 ± 1.2
18884 kPa	1014.9 ± 1.2
18901 kPa	1014.7 ± 1.2
18917 kPa	1014.9 ± 1.2
18937 kPa	1014.7 ± 1.2
18954 kPa	1014.9 ± 1.2
18970 kPa	1014.9 ± 1.2
18990 kPa	1014.8 ± 1.2
19005 kPa	1014.9 ± 1.2
19024 kPa	1014.9 ± 1.2
19040 kPa	1014.9 ± 1.2
19057 kPa	1015 ± 1.2
19075 kPa	1014.8 ± 1.2
19091 kPa	1014.9 ± 1.2
19107 kPa	1014.8 ± 1.2
19126 kPa	1015 ± 1.2
19142 kPa	1015 ± 1.2
19161 kPa	1015 ± 1.2
19177 kPa	1014.9 ± 1.2
19193 kPa	1015 ± 1.2
19212 kPa	1014.9 ± 1.2
19228 kPa	1014.9 ± 1.2
19245 kPa	1015.1 ± 1.2
19264 kPa	1015 ± 1.2
19281 kPa	1015.1 ± 1.2
19297 kPa	1014.9 ± 1.2
19313 kPa	1014.9 ± 1.2
19333 kPa	1014.9 ± 1.2
19350 kPa	1015 ± 1.2
19366 kPa	1015 ± 1.2
19382 kPa	1015.1 ± 1.2
19402 kPa	1015 ± 1.2
19418 kPa	1015.2 ± 1.2
19438 kPa	1015.1 ± 1.2
19455 kPa	1015.2 ± 1.2
19471 kPa	1015.1 ± 1.2
19488 kPa	1015.1 ± 1.2
19509 kPa	1015.1 ± 1.2
19525 kPa	1015.1 ± 1.2
19542 kPa	1015.1 ± 1.2
19559 kPa	1015.2 ± 1.2
19579 kPa	1015.2 ± 1.2
19596 kPa	1015.1 ± 1.2
19616 kPa	1015.1 ± 1.2
19633 kPa	1015.2 ± 1.2
19649 kPa	1015.3 ± 1.2
19666 kPa	1015.2 ± 1.2
19686 kPa	1015.3 ± 1.2
19703 kPa	1015.3 ± 1.2
19720 kPa	1015.3 ± 1.2
19741 kPa	1015.4 ± 1.2
19758 kPa	1015.3 ± 1.2
19778 kPa	1015.2 ± 1.2
19796 kPa	1015.3 ± 1.2
19813 kPa	1015.3 ± 1.2
19830 kPa	1015.3 ± 1.2
19851 kPa	1015.3 ± 1.2
19868 kPa	1015.3 ± 1.2
19885 kPa	1015.3 ± 1.2
19906 kPa	1015.4 ± 1.2
19922 kPa	1015.4 ± 1.2
19941 kPa	1015.3 ± 1.2
19957 kPa	1015.4 ± 1.2
19973 kPa	1015.4 ± 1.2
19989 kPa	1015.4 ± 1.2
20008 kPa	1015.2 ± 1.2
20024 kPa	1015.4 ± 1.2
20040 kPa	1015.4 ± 1.2
20059 kPa	1015.4 ± 1.2
20075 kPa	1015.4 ± 1.2
20094 kPa	1015.4 ± 1.2
20110 kPa	1015.4 ± 1.2
20126 kPa	1015.5 ± 1.2
20143 kPa	1015.5 ± 1.2
20162 kPa	1015.5 ± 1.2
20178 kPa	1015.4 ± 1.2
20194 kPa	1015.6 ± 1.2
20213 kPa	1015.5 ± 1.2
20228 kPa	1015.5 ± 1.2
20246 kPa	1015.4 ± 1.2
20262 kPa	1015.5 ± 1.2
20277 kPa	1015.6 ± 1.2
20293 kPa	1015.5 ± 1.2
20312 kPa	1015.6 ± 1.2
20328 kPa	1015.6 ± 1.2
20343 kPa	1015.5 ± 1.2
20362 kPa	1015.6 ± 1.2
20378 kPa	1015.6 ± 1.2
20395 kPa	1015.7 ± 1.2
20410 kPa	1015.6 ± 1.2
